These results are taken from PMC6271944 (Molecules, 2014).

Molecules are shown by their SMILES.

Series [1] deals with UGT1A9. On the set-up: dose or concentration left out as unconfirmed. The conditions noted are these: cited from earlier work.
For series [2], the system named is UGT1A6. On the set-up: dose or concentration left out as unconfirmed. The following applies: cited from earlier work.
Series [3] addresses T1, CYP3A2 (Rattus norvegicus, UniProt P05183).
T1 sequence (P05183 1-504): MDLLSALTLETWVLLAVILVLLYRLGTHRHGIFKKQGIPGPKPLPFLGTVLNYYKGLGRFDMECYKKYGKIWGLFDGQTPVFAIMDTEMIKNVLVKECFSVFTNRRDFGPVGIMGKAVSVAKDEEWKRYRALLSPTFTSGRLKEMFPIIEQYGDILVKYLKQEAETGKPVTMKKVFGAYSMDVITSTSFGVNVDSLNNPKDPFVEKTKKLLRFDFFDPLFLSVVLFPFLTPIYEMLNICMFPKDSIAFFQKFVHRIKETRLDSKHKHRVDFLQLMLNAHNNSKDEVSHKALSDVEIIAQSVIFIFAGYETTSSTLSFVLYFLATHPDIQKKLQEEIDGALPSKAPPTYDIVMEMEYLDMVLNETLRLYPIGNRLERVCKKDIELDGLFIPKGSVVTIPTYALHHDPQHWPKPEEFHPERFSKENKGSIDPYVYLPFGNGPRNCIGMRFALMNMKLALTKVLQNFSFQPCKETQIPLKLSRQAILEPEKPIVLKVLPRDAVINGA
The series is described as follows: CYP inhibition in rat liver microsomes, substrate cocktail, LC-MS/MS (midazolam). The class given is in vitro ADME. The following applies: pH 7.4, probe midazolam 2 μM, read-out: IC50 for RLM, CYP3A2 (table row CYP3A4). The text has this: (§1) Positive controls (furafyline for CYP1A2, montelukast for CYP2C8, sulfaphenazole for CYP2C9, S-(+)-N-3-benzylnirvanol for CYP2C19, quinidine for CYP2D6, ketoconazole for CYP3A4) and specific substrates (phenacetin for CYP1A2, paclitaxel for CYP2C8, diclofenac for CYP2C9, S-mephenytoin for CYP2C19, dextromethorphan for CYP2D6, midazolam for CYP3A4) are consistent with our previous papers. The substrates were used at concentrations approximately equal to their respective Michaelis-Menten constant (Km) values: 10 μM phenacetin, 5 μM paclitaxel, 5 μM diclofenac, 200 μM S-mephenytoin, 5 μM dextromethorphan, and 2 μM midazolam. NADP^+ was added after a 15 min preincubation of all other components at 37 °C. After a given incubation time (30 min), the reactions were terminated by addition of 60 μL ice-cold acetonitrile containing gemfibrozil and buspirone as internal standards. Incubation samples were stored at −80 °C until used in liquid chromatography-tandem mass spectrometry (LC-MS/MS) analysis. The mixture was centrifuged at 3,500 rpm for 5 min. The supernatant was mixed with equal volume of a 1:1 mixture of methanol and water and 20 μL of the final mixture was used for LC-MS/ MS analysis. […]
(§2) The CYP inhibition potential were evaluated by measuring the formation of one or more metabolites of the test substrates. […]
(Liver microsomes are a subcellular fraction often used to study metabolism.)

The target of series [4] is T2, CYP2C7 (Rattus norvegicus, UniProt P05179).
T2 construct: Pooled rat liver microsomes were prepared from three male Sprague-Dawley rats; from tissue; host or cells: pooled liver microsomes of three male Sprague-Dawley rats, prepared at HD Biosciences Co
T2 sequence (P05179 1-490): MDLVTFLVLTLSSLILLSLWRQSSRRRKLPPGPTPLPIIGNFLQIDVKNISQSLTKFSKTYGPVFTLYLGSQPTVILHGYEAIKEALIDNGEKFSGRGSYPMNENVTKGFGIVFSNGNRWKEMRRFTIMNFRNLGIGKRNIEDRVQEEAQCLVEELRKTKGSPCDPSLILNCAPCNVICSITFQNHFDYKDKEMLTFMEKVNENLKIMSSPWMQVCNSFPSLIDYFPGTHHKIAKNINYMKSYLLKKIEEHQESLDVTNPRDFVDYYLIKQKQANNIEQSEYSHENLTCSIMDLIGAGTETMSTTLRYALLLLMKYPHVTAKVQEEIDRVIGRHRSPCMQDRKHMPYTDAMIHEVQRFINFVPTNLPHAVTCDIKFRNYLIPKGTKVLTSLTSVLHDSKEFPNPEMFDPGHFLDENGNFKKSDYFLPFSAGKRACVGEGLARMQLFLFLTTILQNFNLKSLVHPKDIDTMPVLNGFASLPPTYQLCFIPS
Put plainly: CYP inhibition in rat liver microsomes, substrate cocktail, LC-MS/MS (paclitaxel). The class given is in vitro ADME. The conditions noted are these: 95% CI in brackets, read-out: IC50 for RLM, CYP2C7 (table row CYP2C8).
Description: as §1, §2

In general, IC50 refers to the point on the concentration scale where inhibition reaches its midpoint.

As to `O=C(O)[C@H]1O[C@@H](Oc2cc3oc(-c4ccc(O)cc4)cc(=O)c3c(O)c2O)[C@H](O)[C@@H](O)[C@@H]1O` [scutellarin, Scutellarin], the “inhibition towards the activity of UGT1A9” value in series [1] was 36.1%. For the same compound, the “inhibition towards the activity of UGT1A6” value in series [2] is reported as 20.2%. Moreover, in series [3], the half-maximal inhibitory concentration (IC50) at 30 min is greater than 100 µM. Also, in series [4], the concentration for half-maximal inhibition (IC50) is 63.1 µM.
